Measured values taken from US12458605B2, “Lipid nanoparticle” (National University Corporation Hokkaido University, priority 2020, dated 2025).

Legend:
[1] = Average particle size (ζ-Average) and PDI by dynamic light scattering (Zetasizer Nano ZSP); type: physicochemical
Summary of the method: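 Dynamic light scattering of the particles in PBS(−) gave both the polydispersity index and the ζ-Average mean size.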

[2] = siRNA/mRNA encapsulation rate by Ribogreen reagent (section IV); type: physicochemical; conditions: for % siRNA encapsulation: F7siRNA-loaded LNP, 50:10:38.5:1.5, N/P ratio 6; for % mRNA encapsulation: FlucmRNA-loaded LNP, 50:10:38.5:1.5
Summary of the method: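 Encapsulation % was calculated as (total − surface nucleic acid)/total × 100, with both values measured by RiboGreen fluorescence at 485/528 nm. Total RNA was read on LNPs lysed with 1% Triton X-100 at 1.2 μg/mL, and surface RNA on intact LNPs at 8 μg/mL in TE buffer. Concentrations came from a 0-2.5 μg/mL Triton-containing calibration curve.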

[3] = test system: liver; experiment: In vivo Fluc activity of FlucmRNA-loaded LNP by in vivo imaging, liver; conditions: Balb/c mice, 6 hours; for Fluc activity in the liver, compared with CL15F6: 0.1 mg mRNA/kg, versus LNP comprising CL15F6 (Table 7); for Fluc Activity in liver: FlucmRNA-loaded LNP i.v. 0.1 mg mRNA/kg
Summary of the method: (§1)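 Read-out is average radiance (p/s/cm2/sr, about 560 nm) from whole-animal imaging of liver and spleen 6 h post-dose, after tail-vein luciferin at 1.5 mg/mouse. Dosing was intravenous, 0.1 mg mRNA/kg, in 7-week-old female Balb/c mice.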

[4] = test system: spleen; experiment: In vivo Fluc activity of FlucmRNA-loaded LNP by in vivo imaging, spleen; conditions: Balb/c mice, 6 hours; for Fluc activity in the spleen, compared with CL15F6: 0.1 mg mRNA/kg, versus LNP comprising CL15F6 (Table 7); for Fluc Activity in spleen: FlucmRNA-loaded LNP i.v. 0.1 mg mRNA/kg
Summary of the method: as §1

[5] = test system: F7; experiment: In vivo F7 knockdown, plasma F7 enzyme activity (BIOPHEN FVII), Balb/c mice; conditions: for knockdown activity, compared with MC3: F7siRNA-loaded LNP, versus LNP comprising MC3; for F7 enzyme activity (Ratio using MC3 as 1): i.v. 0.025 mg siRNA/kg, plasma at 24 hours, relative plasma F7 activity of MC3 LNP as 1
Summary of the method: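 Plasma factor VII activity was read 24 h after a single intravenous 0.025 mg siRNA/kg dose of siRNA-loaded lipid nanoparticles in 5-week-old female Balb/c mice. Activity is relative to untreated animals (100%) and normalised to the MC3 nanoparticle benchmark (=1).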

[6] = Storage stability of FlucmRNA-loaded LNP at −80, 5, 25 and 40° C.; type: physicochemical; conditions: for period for which quality remained good, −80° C.: maximum storage period 1 week; for period for which quality remained good, 5° C. / period for which quality remained good, 25° C. / period for which quality remained good, 40° C. (weeks): maximum storage period 5 weeks
Summary of the method: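 Reported period is how long all three criteria hold: encapsulation rate at 80% or more, PDI of 0.2 or less, and mean particle size within +/−20 nm of day-of-preparation value. Particle size, PDI and nucleic acid encapsulation were tracked over time at storage temperatures of −80, 5, 25 and 40° C.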

[7] = F7siRNA-loaded LNP, 50:10:38.5:1.5, N/P ratio 6
[8] = FlucmRNA-loaded LNP, 50:10:38.5:1.5
[9] = FlucmRNA-loaded LNP, lipid:DSPC:cholesterol:DMG-PEG2K 50:10:38.5:1.5

Row | SMILES | PDI [1, 7] | ζ-Average (nm) [1, 7] [nm] | PDI [1, 8] | ζ-Average (nm) [1, 9] [nm] | % siRNA encapsulation [2] [%] | % mRNA encapsulation [2] [%] | Fluc activity in the liver, compared with CL15F6 [3] | Fluc Activity in liver [3] | Fluc activity in the spleen, compared with CL15F6 [4] | Fluc Activity in spleen [4] | knockdown activity, compared with MC3 [5] | F7 enzyme activity (Ratio using MC3 as 1) [5] | period for which quality remained good, −80° C. [6] [week] | period for which quality remained good, 5° C. [6] [weeks] | period for which quality remained good, 25° C. [6] [weeks] | period for which quality remained good, 40° C. (weeks) [6] [weeks] | quality at production (storage stability criteria) ([6]; criteria: PDI 0.2 or less, encapsulation 80% or more)
1 | CCCCCCCCCC(CCCCCC)C(=O)OCCCCCCC(O)(CCCCCCOC(=O)C(CCCCCC)CCCCCCCCC)CCCCOC(=O)C1CCN(C)CC1 (centres unmarked) [CL15F 11-6] | 0.025 | 101.2 | 0.007 | 106.50 | 100.3 | 99.75 | higher Fluc activity | 9.09E+06 Avg Radiance [p/s/cm2/sr] | higher Fluc activity | 8.19E+06 Avg Radiance [p/s/cm2/sr] | higher knockdown activity | 0.81 | 1 | 5 | 5 | 5 | 
2 | CCCCCCCCCC(CCCCCCC)C(=O)OCCCCCCC(O)(CCCCCCOC(=O)C(CCCCCCC)CCCCCCCCC)CCCCOC(=O)C1CCN(C)CC1 (centres unmarked) [CL15F 11-7] | 0.049 | 102.5 | 0.002 | 102.50 | 100.6 | 99.86 | higher Fluc activity | 1.10E+07 Avg Radiance [p/s/cm2/sr] | higher Fluc activity | 7.13E+06 Avg Radiance [p/s/cm2/sr] | higher knockdown activity | 0.85 | 1 | 5 | 5 | 5 | 
3 | CCCCCCCCCC(CCCCCCCCC)C(=O)OCCCCCCC(O)(CCCCCCOC(=O)C(CCCCCCCCC)CCCCCCCCC)CCCCOC(=O)C1CCN(C)CC1 [CL15F 11-9] | 0.029 | 104.9 | 0.023 | 99.31 | 101.1 | 99.78 | higher Fluc activity | 3.66E+07 Avg Radiance [p/s/cm2/sr] | higher Fluc activity | 7.55E+06 Avg Radiance [p/s/cm2/sr] | higher knockdown activity | 0.50 | 1 | 5 | 5 | 5 | 
4 | CCCCCCCCCCC(CCCC)C(=O)OCCCCCCC(O)(CCCCCCOC(=O)C(CCCC)CCCCCCCCCC)CCCCOC(=O)C1CCN(C)CC1 (centres unmarked) [CL15F 12-4] | 0.065 | 113.2 | 0.009 | 116.60 | 100.2 | 99.7 |  | 2.87E+06 Avg Radiance [p/s/cm2/sr] |  | 5.10E+06 Avg Radiance [p/s/cm2/sr] | higher knockdown activity | 0.81 | 1 | 5 | 5 | 5 | 
5 | CCCCCCCCCCC(CCCCCCCCCC)C(=O)OCCCCCCC(O)(CCCCCCOC(=O)C(CCCCCCCCCC)CCCCCCCCCC)CCCCOC(=O)C1CCN(C)CC1 [CL15F 12-10] | 0.014 | 100.2 | 0.030 | 97.59 | 100.5 | 99.78 | higher Fluc activity | 4.33E+07 Avg Radiance [p/s/cm2/sr] |  | 5.58E+06 Avg Radiance [p/s/cm2/sr] | higher knockdown activity | 0.51 | 1 | 5 | 5 | 5 | 
6 | CCCCCCCCCCCC(CCC)C(=O)OCCCCCCC(O)(CCCCCCOC(=O)C(CCC)CCCCCCCCCCC)CCCCOC(=O)C1CCN(C)CC1 (centres unmarked) [CL15F 13-3] | 0.081 | 126.0 | 0.048 | 142.90 | 100.3 | 98.62 |  | 3.51E+06 Avg Radiance [p/s/cm2/sr] | higher Fluc activity | 6.11E+06 Avg Radiance [p/s/cm2/sr] |  | 1.11 | 0 | 5 | 5 | 5 | 
7 | CCCCCCCCCCCCC(CC)C(=O)OCCCCCCC(O)(CCCCCCOC(=O)C(CC)CCCCCCCCCCCC)CCCCOC(=O)C1CCN(C)CC1 (centres unmarked) [CL15F 14-2] | 0.13 | 143.9 | 0.117 | 158.90 | 100.2 | 95.70 | higher Fluc activity | 1.03E+07 Avg Radiance [p/s/cm2/sr] | higher Fluc activity | 7.58E+06 Avg Radiance [p/s/cm2/sr] |  | 1.82 | 1 | 5 | 5 | 5 | 
8 | CCCCCCCCCCCCCCCC(=O)OCCCCCCC(O)(CCCCCCOC(=O)CCCCCCCCCCCCCCC)CCCCOC(=O)C1CCN(C)CC1 [CL15F 16-0] | 0.238 | 109.6 | 0.234 | 195.90 | 101.0 | 100.1 |  | 1.97E+05 Avg Radiance [p/s/cm2/sr] |  | 4.59E+05 Avg Radiance [p/s/cm2/sr] |  | 1.48 |  |  |  |  | Does not meet the criteria for “good” at production
